The series is described as follows: RP, Waters ACQUITY UPLC HSS T3, 100 × 2.1 mm, 1.8 µm, 30 °C, 0.3 mL/min, estimated dead time 0.73 min; A: water + 0.1% formic acid, pH 3; B: methanol + 0.1% formic acid, pH 3; gradient (min/%B) 0/0 6/0 56/100 60/100. The note with it: stereoisomer not certain.
For the compound `O=c1c(OC2OC(CO)C(O)C(O)C2O)c(-c2ccc(OC3OC(CO)C(O)C(O)C3O)c(O)c2)oc2cc(O)cc(O)c12` (stereo unspecified) [quercetin 3,4'-diglucoside], the LC retention time was 26.1 min. With `O=c1c(OC2OC(C(O)CO)C(O)C2O)c(-c2ccc(O)c(O)c2)oc2cc(O)cc(O)c12` (stereo unspecified) [quercetin 3-glucoside] the figure was 29.1 min; with `O=C(O)C1OC(Oc2c(-c3ccc(O)c(O)c3)oc3cc(O)cc(O)c3c2=O)C(O)C(O)C1O` (stereo unspecified) [quercetin 3-glucuronide], 28.4 min; with `CC1OC(OCC2OC(Oc3c(-c4ccc(O)c(O)c4)oc4cc(O)cc(O)c4c3=O)C(O)C(O)C2O)C(O)C(O)C1O` (stereo unspecified) [quercetin 3-rutinoside], 29.1 min. Next, `O=c1c(OS(=O)(=O)O)c(-c2ccc(O)c(O)c2)oc2cc(O)cc(O)c12` [quercetin 3-sulfate]: 27.4 min; `O=c1c(O)c(-c2ccc(OC3OC(CO)C(O)C(O)C3O)c(O)c2)oc2cc(O)cc(O)c12` (stereo unspecified) [quercetin 4'-glucoside]: 30.4 min. Take `CC(=O)OCC1OC(Oc2c(-c3ccc(O)c(O)c3)oc3cc(O)cc(O)c3c2=O)C(O)C(O)C1O` (stereo unspecified) [quercetin-3-O-glucose-6''-acetate]: the LC retention time is 31 min. Next, `O=c1c(OC2OC(CO)C(O)C(O)C2O)c(-c2ccc(O)c(O)c2)oc2cc(O)cc(O)c12` (stereo unspecified) [quercetin-3-galactoside]: 28.9 min. With `O=c1c(O)c(-c2ccc(O)c(O)c2)oc2cc(O)cc(O)c12` [quercetin] the figure was 34 min; with `CC1OC(Oc2c(-c3ccc(O)c(O)c3)oc3cc(O)cc(O)c3c2=O)C(O)C(O)C1O` (stereo unspecified) [quercitrin], 31.1 min; with `O=C(O)C1(O)CC(O)C(O)C(O)C1` (stereo unspecified) [quinic acid], 1.6 min. With `OCC1OC(OCC2OC(OC3(CO)OC(CO)C(O)C3O)C(O)C(O)C2O)C(O)C(O)C1O` (stereo unspecified) [raffinose] the figure was 2.6 min; with `COc1cc(O)c2c(=O)c(O)c(-c3ccc(O)c(OC)c3)oc2c1` [rhamnazin], 42.2 min. Turning to `COc1cc(O)c2c(=O)c(O)c(-c3ccc(O)c(O)c3)oc2c1` [rhamnetin], the LC retention time is 38.9 min. With `CC1OC(O)C(O)C(O)C1O` (stereo unspecified) [rhamnose] the figure was 1.57 min; with `Cc1cc2nc3c(=O)[nH]c(=O)nc-3n(CC(O)C(O)C(O)CO)c2cc1C` (stereo unspecified) [riboflavin], 23.9 min; with `CC1OC(OCC2OC(Oc3c(-c4ccc(O)cc4)oc4cc(OC5OC(C)C(O)C(O)C5O)cc(O)c4c3=O)C(O)C(O)C2O)C(O)C(O)C1O` (stereo unspecified) [robinin], 28.6 min. With `O=C(C=Cc1ccc(O)c(O)c1)OC(Cc1ccc(O)c(O)c1)C(=O)O` (stereo unspecified) [rosmarinic acid] the figure was 30 min; with `COc1cc(O)c2c(c1)OC(c1ccc(O)cc1)CC2=O` (stereo unspecified) [sakuranetin], 39 min. For `O=C(O)c1ccccc1O` [salicylic acid], the LC retention time was 26.4 min. Next, `C=CC(C)(O)CCC1C(C)(O)CCC2C(C)(C)CCCC21C` (stereo unspecified) [sclareol]: 50.1 min.

With `COc1cc2ccc(=O)oc2cc1O` [scopoletin], the LC retention time was 24.6 min. With `NCCc1c[nH]c2ccc(O)cc12` [serotonin] the figure was 11.1 min; with `COc1cc(/C=C/C(=O)O)cc(OC)c1O` [sinapic acid], 25.9 min. Take `COc1cc(/C=C/CO)cc(OC)c1O` [sinapyl alcohol]: the LC retention time is 23.6 min.

In the case of `COc1ccc(-c2cc(=O)c3c(OC)c(OC)c(OC)cc3o2)cc1OC` [sinensetin], the LC retention time was 39.3 min. Next, `CC=CC=CC(=O)O` [sorbic acid]: 25.1 min. With `NCCCCNCCCN` [spermidine] the figure was 1.04 min; with `NCCCNCCCCNCCCN` [spermine], 0.98 min. For the compound `OCC1OC(OCC2OC(OCC3OC(OC4(CO)OC(CO)C(O)C4O)C(O)C(O)C3O)C(O)C(O)C2O)C(O)C(O)C1O` (stereo unspecified) [stachyose], the LC retention time is 2.4 min. Turning to `O=C(O)CCC(=O)O` [succinic acid], the LC retention time was 4.97 min. Next, `OCC1OC(OC2(CO)OC(CO)C(O)C2O)C(O)C(O)C1O` (stereo unspecified) [sucrose]: 1.9 min; `COc1cc(C=NN=Cc2cc(OC)c(O)c(OC)c2)cc(OC)c1O` [syringaldazine]: 35.5 min; `COc1cc(C=O)cc(OC)c1O` [syringaldehyde]: 23.5 min. Next, `COc1cc(-c2oc3cc(O)cc(O)c3c(=O)c2OC2OC(CO)C(O)C(O)C2O)cc(OC)c1O` (stereo unspecified) [syringetin-3-galactoside]: 31.6 min; `COc1cc(-c2oc3cc(O)cc(O)c3c(=O)c2O)cc(OC)c1O` [syringetin]: 37.4 min.

Take `COc1cc(C(=O)O)cc(OC)c1O` [syringic acid]: the LC retention time is 21.9 min. With `CC(CCC(=O)NCCS(=O)(=O)O)C1CCC2C3C(O)CC4CC(O)CCC4(C)C3CC(O)C12C` (stereo unspecified) [taurocholic acid] the figure was 42.3 min; with `O=C1c2c(O)cc(O)cc2OC(c2ccc(O)c(O)c2)C1O` (stereo unspecified) [taxifolin], 25.3 min; with `CC(C)(C)c1cc(O)ccc1O` [tert-butylhydroquinone], 30.5 min. With `Cn1cnc2c1c(=O)[nH]c(=O)n2C` [theobromine] the figure was 15.3 min.

For the compound `Cn1c(=O)c2[nH]cnc2n(C)c1=O` [theophylline], the LC retention time was 17.8 min.

Turning to `Cc1ncc(C[n+]2csc(CCO)c2C)c(N)n1` [thiamine], the LC retention time is 1.6 min.

As for `O=C(O)C(O)C(O)CO` (stereo unspecified) [threonic acid], the LC retention time is 1.45 min.

Regarding `O=CC(O)C(O)CO` (stereo unspecified) [threose], the LC retention time is 1.47 min. Next, `O=C(C=Cc1ccc(O)cc1)OC(C(=O)O)C(O)C(=O)O` (stereo not drawn) [trans coutaric acid]: 18 min. Next, `CC1(O)CCC(C(C)(C)O)CC1` (stereo not drawn) [trans-terpin]: 27.9 min; `C[n+]1cccc(C(=O)[O-])c1` [trigonelline]: 1.67 min. With `OCCc1c[nH]c2ccccc12` [trypthophol] the figure was 26.2 min; with `NCCc1ccc(O)cc1` [tyramine], 6.2 min. Take `OCCc1ccc(O)cc1` [tyrosol]: the LC retention time was 17.5 min. Next, `O=c1ccc2ccc(O)cc2o1` [umbelliferone]: 23.9 min; `O=c1cc[nH]c(=O)[nH]1` [uracil]: 2.98 min.

For the compound `NC(N)=O` [urea], the LC retention time was 1.3 min. With `CCOC(N)=O` [urethane] the figure was 7.1 min; with `O=c1[nH]c(=O)c2[nH]c(=O)[nH]c2[nH]1` [uric acid], 1.62 min; with `O=c1ccn(C2OC(CO)C(O)C2O)c(=O)[nH]1` (stereo unspecified) [uridine], 7 min. With `CC1CCC2(C(=O)O)CCC3(C)C(=CCC4C5(C)CCC(O)C(C)(C)C5CCC43C)C2C1C` (stereo unspecified) [ursolic acid] the figure was 53.6 min; with `COc1cc(C(=O)O)ccc1O` [vanillic acid], 20.3 min. With `COc1cc(C=O)ccc1O` [vanillin] the figure was 21.5 min; with `Oc1ccc(C2Oc3cc(O)c4c(c3C2c2cc(O)cc(O)c2)C2c3c(O)cc5c(c3C(C4c3ccc(O)cc3)C2c2ccc(O)cc2)C(c2cc(O)cc(O)c2)C(c2ccc(O)cc2)O5)cc1` (stereo not drawn) [vaticanol C like isomer], 29 min. On to `CC(=CCC1=C(C)C(=O)c2ccccc2C1=O)CCCC(C)CCCC(C)CCCC(C)C` (stereo unspecified) [vitamin K1], for which the LC retention time is 57.7 min.

For `COc1cc(-c2oc3cc(=O)cc4oc(C(=O)O)cc(c2OC2OC(CO)C(O)C(O)C2O)c43)cc(OC)c1O` (stereo unspecified) [vitisin A], the LC retention time is 28.3 min.

`COc1cc(-c2oc3cc(=O)cc4occc(c2OC2OC(CO)C(O)C(O)C2O)c43)cc(OC)c1O` (stereo unspecified) [vitisin B]: the LC retention time was 27 min. Next, `O=c1[nH]c(=O)c2[nH]cnc2[nH]1` [xanthine]: 6.01 min. `OC1COC(O)C(O)C1O` (stereo unspecified) [xylose]: the LC retention time is 1.4 min.

Source of the values: the RepoRT retention time repository (doi:10.1007/s11306-011-0298-z).
